This note sets out measurements from patent US20230041065A1, “METHODS FOR GENERATING HEMATOPOIETIC STEM CELLS” (The Brigham and Women`s Hospital, Inc., priority 2019, published 2023).

In one test the test system is E11.5 AGM cells. Nature of the test: Hematopoietic CFU and FACS assays on E11.5 AGM cells. The conditions noted are these: for GEMM formation: 50 μM. Type of test: cell-based, mouse. The method, then: Pulsating blood vessels like conditions were stimulated in vitro using Flexcell FX-4000 machine. To analyze roles of pharmacological targets in regulating the endothelial-to-HSC transition, mouse embryo-derived AGM or whole mouse embryo were exposed ex vivo with biomechanical stretching, chemicals, or drugs. Next, hematopoietic colony formation assays were performed by incubating mouse AGM-derived cells in StemCell M3434 media for seven days. Serial transplantation of AGM-derived HSCs in lethally irradiated SJL mice were performed. The stem cell frequency upon biomechanical stretching was analyzed using a limiting dilution assay. To characterize properties of AGM-HSC-derived blood cells in primary transplants, percentage chimerism and reconstitution was measured using FACS, globin transcripts were analyzed using quantitative reverse transcriptase-PCR, myeloperoxidase amount was measured using PicoKine ELISA kit, TCR-β rearrangement was analyzed using PCR for TCR-β locus, pre-immune IG detection was analyzed using Thermo-Fisher Mouse Ig Isotyping kit, and delayed-type hypersensitivity was analyzed by injecting sheep RBC (Rockland Immunochemicals) in the footpad of pre-sensitized mice. E11.5 AGM were harvested from C57BL6/J Cd45.2 mouse embryos, and a single cell suspension of a three-embryo equivalent of cells was seeded on each well of a BioFlex six-well culture plate ([…]). We cultured cells overnight with the application of cyclic strain (Flexcell® FX4000TM Tension System) and/or treatment with chemical modulators (2-100 μM Yoda1, 1 μM Nanaomycin, 100 μM Gdcl3, 1 uM GsMT×4, 5-20 μM 4αPDD, 10 uM GSK205). Next, harvested cells were used to perform transplant, fluorescence-activated cell sorting (FACS) analysis, and colony-forming unit (CFU) assays. For CFU assays, cells from AGM explant or ex vivo were plated in MethoCult GF M3434 media (StemCell Technologies). Seven days after seeding, we analyzed their capacity to make granulocyte, erythroid, macrophage, megakaryocyte (GEMM), granulocyte macrophage (GM), granulocyte (G), macrophage (M), and erythroid (E) colonies.

A further test concerns zebrafish embryos. Nature of the test: HSPC marker expression in zebrafish embryos (whole mount in situ hybridization). Type of test: in vivo. On the procedure:
(§1) Zebrafish embryos were treated with the following chemical modulators in E3 fish media: 100 uM L-NAME (Fisher Scientific), 50 uM Digitoxigenin (Sigma), 25-50 uM Yoda1 (Cayman Chemical), 1 uM Nanaomycin (Nana; Fisher Scientific), 100 uM Gadolinium chloride (GdCl3; Sigma), 5-10 uM 4α-phorbol 12, 13-didecanaote (4Apdd; Sigma), or GSK205 (10 uM).
Whole mount in situ hybridizations was performed as previously described.

For test [1], the system named is cd41:eGFP+ HSCs emerging from flk1:mCherry+ endothelial cells. Nature of the test: Time-lapse confocal imaging of cd41:eGFP+ HSCs emerging from flk1:mCherry+ endothelial cells in transgenic embryos. In kind it is in vivo, zebrafish. The conditions noted are these: embryos concurrently treated with or without Yoda1. On the procedure: Mice were purchased Cd45.2 (C57BL6/J) and Cd45.1 (SJL) from The Jackson Laboratory and zebrafish morpholinos from GeneTools. Microangiography was performed by injecting fluorescent-labeled dextran dye in the atrium of zebrafish heart and its passage was recorded using live imaging. Immunostaining of zebrafish heart and mouse AGM were analyzed using an inverted fluorescent microscope. Cardiac tamponade, heart rate, and pulse frequency were analyzed in zebrafish embryos using bright field imaging or time-lapse confocal microscopy. The movement of red blood cells in blood vessels was analyzed as well as the endothelial-to-HSC transition in zebrafish transgenic embryos using time-lapse confocal imaging.
as §1
cd41:eGFP were crossed with flk1:mCherry zebrafish and flk1:mCherry with lcr:eGFP zebrafish and injected morpholino in their transgenic embryos. […] The relative movement of lcr:eGFP^+ red blood cells was analyzed in the context of flk1:mCherry^+ endothelium. We performed image analysis using Imaris (Bitplane) software.

Where no end group is shown, it is not given here.

For `Cc1oc(-c2cccs2)cc1C(=O)O` [Jedi2], in the test on E11.5 AGM cells, the GEMM formation result is “enhances GEMM formation”.
For `Cc1oc(-c2ccccc2)cc1C(=O)O` [Jedi1], in the test with E11.5 AGM cells, the GEMM formation result was “enhances GEMM formation”.
Turning to `[Cl][Gd]([Cl])[Cl]` [GdCl3, Gadolinium chloride], the “formation of multipotent hematopoietic progenitors potentiated by 10% cyclic strain” value in the test with E11.5 AGM cells (10% cyclic strain plus stretch-activated receptor inhibitor) is recorded as “attenuated”. Also, the HSPC expression entry in the test with zebrafish embryos (zebrafish embryos) is recorded as “attenuated HSPC expression in zebrafish embryos to the level of sih-MO embryos”.
`COC(=O)[C@@H](N)CCCNC(=N)N[N+](=O)[O-]` [L-NAME]: the values for the HSPC formation result in the test on zebrafish embryos (cdh5-MO embryos) and in the test on zebrafish embryos (control embryos) were “does not impact HSPC formation in cdh5-MO embryos” and “attenuates HSPC formation in control embryos”, respectively.
“GsMtX4: pharmacological inhibition of Piezo1 (GCLEFWWKCNPNDDKCCRPKLKCSKLFKLCNFSF; ends and bridges not checked; cysteine pairing not given here; UniProt Q7YT39 47-80, looked up)”: the “hematopoietic colony formation induced by cyclic strain” value with E11.5 AGM cells (cyclic strain plus Piezo1 inhibitor) was “attenuates the inductive impact of cyclic strain on the endothelial-to-HSC transition”.
For the compound `CC1OC(CC(=O)O)CC2=C1C(=O)c1c(O)cccc1C2=O` (centres unmarked) [Nanaomycin], the “Piezo1 activation (Yoda1)-mediated increase in HSC formation” value in test [1] is “attenuated the Piezo1 activation-mediated increase in HSC formation”. In addition, in the test with E11.5 AGM cells (cyclic strain or Yoda1 in the presence of Nanaomycin), the “hematopoietic colony formation stimulated by cyclic strain or Yoda1” value is recorded as “attenuates the endothelial-to-HSC transition stimulated by circumferential stretch or Piezo1 activation”. Moreover, the “phenotype of hematopoietic cells after treatment” value in the test with E11.5 AGM cells (stretch- or Piezo1 activation-treated AGM cells) was “reverts hematopoietic cells into phenotypic endothelial cells”. Also, the HSPC marker expression entry in the test on zebrafish embryos (control and cdh5-MO embryos) is “attenuated HSPC marker expression in control and cdh5-MO embryos”.
